# Assay results as given in the NIST ThermoML archive (doi:10.1021/je200628n).
# ± gives the expanded uncertainty stated by the source.
# Assay: activity coefficient (dimensionless); of the first substance listed, at infinite dilution; xn = mol fraction of the nth substance listed
# Settings: 101 kPa, Liquid, Chromatography, x1 = 0
Structure (SMILES),activity coefficient (328.15 K),activity coefficient (338.15 K),activity coefficient (343.15 K),activity coefficient (348.15 K),activity coefficient (348.25 K),activity coefficient (353.15 K),activity coefficient (358.25 K),activity coefficient (363.21 K),activity coefficient (338.2 K),activity coefficient (353.22 K)
CCCOC(C)=O [propyl ethanoate] + NCCCCCCCCN,1.29 ± 0.06,1.08 ± 0.048,0.997 ± 0.044,0.929 ± 0.042,–,–,–,–,–,–
C=CCCCCCC [oct-1-ene] + NCCCCCCCCN,3.94 ± 0.2,3.38 ± 0.17,3.16 ± 0.16,3 ± 0.15,–,–,–,–,–,–
CCCO [propan-1-ol] + NCCCCCCCCCCCCN,–,–,–,–,0.931 ± 0.042,0.975 ± 0.043,1.04 ± 0.046,1.09 ± 0.049,–,–
ClCCl [dichloromethane] + NCCCCCCCCN,0.657 ± 0.034,0.552 ± 0.032,0.53 ± 0.031,0.513 ± 0.031,–,–,–,–,–,–
Cc1ccccc1 [toluene] + NCCCCCCCCCCCCN,–,–,–,–,2.6 ± 0.13,2.51 ± 0.13,2.42 ± 0.12,2.33 ± 0.12,–,–
CCO [ethanol] + NCCCCCCCCCCN,–,–,–,0.676 ± 0.034,–,–,–,–,0.602 ± 0.033,0.718 ± 0.035
C=CCCC [1-pentene] + NCCCCCCCCN,2.81 ± 0.14,2.7 ± 0.14,2.67 ± 0.14,2.65 ± 0.14,–,–,–,–,–,–
CCCCCl [1-chlorobutane] + NCCCCCCCCCCN,–,–,–,2.12 ± 0.11,–,–,–,–,2.38 ± 0.12,2.01 ± 0.1
CCCCCCl [1-chloropentane] + NCCCCCCCCCCCCN,–,–,–,–,3.08 ± 0.16,2.91 ± 0.15,2.73 ± 0.14,2.68 ± 0.14,–,–
ClCCl [dichloromethane] + NCCCCCCCCCCN,–,–,–,1.09 ± 0.049,–,–,–,–,1.19 ± 0.054,0.985 ± 0.043
Cc1ccccc1 [toluene] + NCCCCCCCCCCN,–,–,–,2.23 ± 0.12,–,–,–,–,2.52 ± 0.13,2.13 ± 0.11
C=CCCCCCC [oct-1-ene] + NCCCCCCCCCCCCN,–,–,–,–,4.83 ± 0.25,4.53 ± 0.23,4.33 ± 0.22,4.11 ± 0.21,–,–
CCOCC [diethyl ether] + NCCCCCCCCCCCCN,–,–,–,–,4.45 ± 0.23,4.37 ± 0.22,4.33 ± 0.22,4.25 ± 0.22,–,–
CCCCO [butan-1-ol] + NCCCCCCCCCCCCN,–,–,–,–,1.07 ± 0.048,1.1 ± 0.049,1.12 ± 0.051,1.16 ± 0.053,–,–
C=CCCCC [hex-1-ene] + NCCCCCCCCN,3.18 ± 0.16,2.94 ± 0.15,2.85 ± 0.15,2.77 ± 0.14,–,–,–,–,–,–
CCOC(C)=O [ethyl acetate] + NCCCCCCCCN,1.08 ± 0.048,0.954 ± 0.042,0.902 ± 0.041,0.855 ± 0.039,–,–,–,–,–,–
C=CCCCCC [1-heptene] + NCCCCCCCCN,3.59 ± 0.18,3.21 ± 0.17,3.03 ± 0.15,2.93 ± 0.15,–,–,–,–,–,–
CCCCCCCCCC [decane] + NCCCCCCCCCCN,–,–,–,5.03 ± 0.26,–,–,–,–,5.59 ± 0.29,4.78 ± 0.25
CCCCCC [hexane] + NCCCCCCCCN,4.03 ± 0.21,3.83 ± 0.2,3.75 ± 0.19,3.72 ± 0.19,–,–,–,–,–,–

Structure (SMILES),activity coefficient (328.15 K),activity coefficient (338.15 K),activity coefficient (343.15 K),activity coefficient (348.15 K),activity coefficient (348.25 K),activity coefficient (353.15 K),activity coefficient (358.25 K),activity coefficient (363.21 K),activity coefficient (338.2 K),activity coefficient (353.22 K)
CCCCCCl [1-chloropentane] + NCCCCCCCCCCN,–,–,–,2.43 ± 0.12,–,–,–,–,2.94 ± 0.15,2.23 ± 0.12
C=CCCCCCCCC [1-decene] + NCCCCCCCCN,4.24 ± 0.22,3.58 ± 0.18,3.33 ± 0.17,3.14 ± 0.16,–,–,–,–,–,–
CO [methanol] + NCCCCCCCCCCCCN,–,–,–,–,0.774 ± 0.037,0.841 ± 0.039,0.919 ± 0.041,1.01 ± 0.044,–,–
CCO [ethanol] + NCCCCCCCCCCCCN,–,–,–,–,0.828 ± 0.039,0.891 ± 0.04,0.952 ± 0.042,1.03 ± 0.045,–,–
CCCCOC(C)=O [butyl ethanoate] + NCCCCCCCCCCCCN,–,–,–,–,1.69 ± 0.084,1.57 ± 0.077,1.46 ± 0.07,1.36 ± 0.065,–,–
CCCCCCCl [1-chlorohexane] + NCCCCCCCCCCCCN,–,–,–,–,4.5 ± 0.23,4.27 ± 0.22,4.11 ± 0.21,3.94 ± 0.2,–,–
CCc1ccccc1 [ethylbenzene] + NCCCCCCCCCCCCN,–,–,–,–,2.5 ± 0.13,2.47 ± 0.13,2.42 ± 0.12,2.39 ± 0.12,–,–
C=CCCCCC [1-heptene] + NCCCCCCCCCCCCN,–,–,–,–,4.43 ± 0.23,4.22 ± 0.22,4.08 ± 0.21,3.88 ± 0.2,–,–
CCCCCCCC [octane] + NCCCCCCCCCCCCN,–,–,–,–,5.54 ± 0.28,5.43 ± 0.28,5.27 ± 0.27,5.19 ± 0.27,–,–
CCCCCCC [heptane] + NCCCCCCCCCCN,–,–,–,4.64 ± 0.24,–,–,–,–,5.05 ± 0.26,4.46 ± 0.23
C=CCCCCC [1-heptene] + NCCCCCCCCCCN,–,–,–,3.1 ± 0.16,–,–,–,–,3.43 ± 0.18,2.97 ± 0.15
ClC(Cl)(Cl)Cl [tetrachloromethane] + NCCCCCCCCN,2.06 ± 0.11,1.66 ± 0.082,1.51 ± 0.073,1.37 ± 0.065,–,–,–,–,–,–
CCCCCCCCCC [decane] + NCCCCCCCCCCCCN,–,–,–,–,6.11 ± 0.31,5.89 ± 0.3,5.74 ± 0.29,5.6 ± 0.29,–,–
Cc1ccccc1 [toluene] + NCCCCCCCCN,2.39 ± 0.12,2.17 ± 0.11,2.11 ± 0.11,2.07 ± 0.11,–,–,–,–,–,–
CCCO [propan-1-ol] + NCCCCCCCCN,0.567 ± 0.032,0.58 ± 0.032,0.593 ± 0.032,0.614 ± 0.033,–,–,–,–,–,–
ClC(Cl)(Cl)Cl [tetrachloromethane] + NCCCCCCCCCCN,–,–,–,2.05 ± 0.1,–,–,–,–,2.25 ± 0.12,1.98 ± 0.1
CCCO [propan-1-ol] + NCCCCCCCCCCN,–,–,–,0.731 ± 0.036,–,–,–,–,0.622 ± 0.033,0.772 ± 0.037
CCCCCl [1-chlorobutane] + NCCCCCCCCCCCCN,–,–,–,–,2.71 ± 0.14,2.63 ± 0.14,2.56 ± 0.13,2.46 ± 0.13,–,–
CCCCCCCC [octane] + NCCCCCCCCN,4.73 ± 0.24,4.4 ± 0.23,4.24 ± 0.22,4.13 ± 0.21,–,–,–,–,–,–

Structure (SMILES),activity coefficient (328.15 K),activity coefficient (338.15 K),activity coefficient (343.15 K),activity coefficient (348.15 K),activity coefficient (348.25 K),activity coefficient (353.15 K),activity coefficient (358.25 K),activity coefficient (363.21 K),activity coefficient (338.2 K),activity coefficient (353.22 K)
CO [methanol] + NCCCCCCCCCCN,–,–,–,0.634 ± 0.033,–,–,–,–,0.551 ± 0.032,0.682 ± 0.035
CO [methanol] + NCCCCCCCCN,0.284 ± 0.028,0.317 ± 0.028,0.34 ± 0.028,0.369 ± 0.029,–,–,–,–,–,–
CCCCC [pentane] + NCCCCCCCCCCCCN,–,–,–,–,4.76 ± 0.24,4.74 ± 0.24,4.68 ± 0.24,4.63 ± 0.24,–,–
c1ccccc1 [benzene] + NCCCCCCCCN,1.8 ± 0.09,1.67 ± 0.083,1.62 ± 0.08,1.59 ± 0.078,–,–,–,–,–,–
c1ccccc1 [benzene] + NCCCCCCCCCCCCN,–,–,–,–,2.08 ± 0.11,2.07 ± 0.11,2.06 ± 0.1,2.04 ± 0.1,–,–
CCCCCCCC [octane] + NCCCCCCCCCCN,–,–,–,4.79 ± 0.25,–,–,–,–,5.24 ± 0.27,4.55 ± 0.23
CCc1ccccc1 [ethylbenzene] + NCCCCCCCCN,2.07 ± 0.11,1.86 ± 0.094,1.77 ± 0.089,1.72 ± 0.085,–,–,–,–,–,–
ClC(Cl)(Cl)Cl [tetrachloromethane] + NCCCCCCCCCCCCN,–,–,–,–,2.37 ± 0.12,2.28 ± 0.12,2.06 ± 0.11,1.98 ± 0.1,–,–
CCCOC(C)=O [propyl ethanoate] + NCCCCCCCCCCCCN,–,–,–,–,1.55 ± 0.076,1.45 ± 0.07,1.35 ± 0.064,1.26 ± 0.058,–,–
CCCCCC [hexane] + NCCCCCCCCCCCCN,–,–,–,–,4.86 ± 0.25,4.8 ± 0.25,4.74 ± 0.24,4.69 ± 0.24,–,–
CCCCCCC [heptane] + NCCCCCCCCCCCCN,–,–,–,–,5.21 ± 0.27,5.13 ± 0.26,5.04 ± 0.26,4.97 ± 0.26,–,–
ClCCl [dichloromethane] + NCCCCCCCCCCCCN,–,–,–,–,1.33 ± 0.062,1.23 ± 0.057,1.12 ± 0.05,1.05 ± 0.046,–,–
CCc1ccccc1 [ethylbenzene] + NCCCCCCCCCCN,–,–,–,1.78 ± 0.089,–,–,–,–,1.97 ± 0.1,1.72 ± 0.085
CCOC(C)=O [ethyl acetate] + NCCCCCCCCCCN,–,–,–,0.951 ± 0.042,–,–,–,–,1.16 ± 0.053,0.868 ± 0.04
C=CCCCCCC [oct-1-ene] + NCCCCCCCCCCN,–,–,–,3.65 ± 0.19,–,–,–,–,4.09 ± 0.21,3.45 ± 0.18
CCCCOC(C)=O [butyl ethanoate] + NCCCCCCCCN,1.51 ± 0.073,1.25 ± 0.058,1.14 ± 0.052,1.05 ± 0.047,–,–,–,–,–,–
CCCCCCCCCC [decane] + NCCCCCCCCN,5.47 ± 0.28,4.82 ± 0.25,4.58 ± 0.23,4.36 ± 0.22,–,–,–,–,–,–
CCCCCC [hexane] + NCCCCCCCCCCN,–,–,–,4.55 ± 0.23,–,–,–,–,4.96 ± 0.26,4.41 ± 0.23
CCCCCl [1-chlorobutane] + NCCCCCCCCN,1.88 ± 0.095,1.65 ± 0.081,1.55 ± 0.075,1.48 ± 0.071,–,–,–,–,–,–
